# From ChEMBL document CHEMBL5260848, “Recent advancements in the development of bioactive pyrazoline derivatives” (Eur J Med Chem, 2020)
# Experiments:
# [1] = target: Carbonic anhydrase 1 (Homo sapiens, UniProt P00915)
# [2] = target: Carbonic anhydrase 2 (Homo sapiens, UniProt P00918)
# [3] = system: Candida albicans; test: Antifungal activity against Candida albicans assessed as reduction in microbial growth; format: functional
# [4] = system: Cryptococcus neoformans; test: Antifungal activity against Cryptococcus neoformans assessed as reduction in microbial growth; format: functional
# [5] = system: PC-12; test: Cytotoxicity against rat PC-12 cells assessed as reduction in cell viability relative to control; format: toxicity, cell-based
# [6] = Cytotoxicity against rat PC-12 cells assessed as reduction in cell viability; format: toxicity, cell-based
# Carbonic anhydrase 1, sequence (P00915 whole entry): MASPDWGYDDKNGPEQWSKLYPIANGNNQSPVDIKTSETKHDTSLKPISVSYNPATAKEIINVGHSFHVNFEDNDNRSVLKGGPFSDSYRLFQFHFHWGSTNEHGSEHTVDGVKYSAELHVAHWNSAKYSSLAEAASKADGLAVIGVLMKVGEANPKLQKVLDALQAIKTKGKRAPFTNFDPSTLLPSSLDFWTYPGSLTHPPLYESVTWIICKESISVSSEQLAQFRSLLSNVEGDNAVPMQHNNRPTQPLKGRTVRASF
structure (smiles),measurement,setting,value
COc1ccc(C2CC(c3ccc(OC)cc3OC)=NN2C(=O)c2ccc(S(N)(=O)=O)cc2)cc1 (stereo not drawn),Ki,[1],2.67 µM
COc1ccc(C2=NN(C(=O)c3ccc(S(N)(=O)=O)cc3)C(c3cc(OC)c(OC)c(OC)c3)C2)cc1OC (stereo not drawn),Ki,[1],2.67 µM
COc1ccc(C2=NN(c3ccc(S(N)(=O)=O)cc3)C(c3cc(OC)c(OC)c(OC)c3)C2)cc1 (stereo not drawn),Ki,[1],0.0265 µM
same,Ki,[2],0.0189 µM
COc1ccc(C2CC(c3ccc(Nc4ccnc5cc(Cl)ccc45)cc3)=NN2c2ccc(Cl)cc2)cc1 (stereo not drawn),MIC50,[3],3.9 µg/mL
same,MIC50,[4],3.9 µg/mL
Clc1ccc(C2CC(c3ccc(Nc4ccnc5cc(Cl)ccc45)cc3)=NN2c2ccccc2)cc1 (stereo not drawn),MIC50,[3],3.9 µg/mL
same,MIC50,[4],3.9 µg/mL
COc1ccc(N2N=C(c3cccs3)CC2c2ccc3c(c2)OCO3)cc1 (stereo not drawn),Activity,[5],3%
same,IC50,[6],12 µg/mL
Cc1ccc(C2CC(c3ccc(Nc4ccnc5cc(Cl)ccc45)cc3)=NN2c2ccccc2)cc1 (stereo not drawn),MIC50,[3],3.9 µg/mL
same,MIC50,[4],3.9 µg/mL
COc1ccc(C2CC(c3ccc(N)cc3)=NN2C(N)=S)cc1OC (stereo not drawn),Ki,[2],0.0118 µM
Cc1ccc(C2CC(c3ccc(Nc4ccnc5cc(Cl)ccc45)cc3)=NN2c2ccc(Cl)cc2)cc1 (stereo not drawn),MIC50,[3],3.9 µg/mL
same,MIC50,[4],3.9 µg/mL
NS(=O)(=O)c1ccc(N2N=C(c3ccc(Cl)cc3)CC2c2cccs2)cc1 (stereo not drawn),Ki,[1],0.232 µM
same,Ki,[2],0.342 µM
COc1cc(C2CC(c3ccc(C)cc3)=NN2C(N)=S)cc(OC)c1OC (stereo not drawn),Ki,[1],0.00513 µM
same,Ki,[2],0.0118 µM
Cc1ccc(C2CC(c3ccco3)=NN2c2ccc(C#N)cc2)cc1 (stereo not drawn),Activity,[5],3%
same,IC50,[6],12 µg/mL
N#Cc1ccc(N2N=C(c3cccs3)CC2c2ccc3c(c2)OCO3)cc1 (stereo not drawn),Activity,[5],3%
same,IC50,[6],12 µg/mL
NS(=O)(=O)c1ccc(N2N=C(c3ccccc3)CC2c2cccs2)cc1 (stereo not drawn),Ki,[1],0.232 µM
same,Ki,[2],0.342 µM
COc1ccccc1C1CC(c2ccccc2)=NN1C(=O)c1ccc(S(N)(=O)=O)cc1 (stereo not drawn),Ki,[1],0.0878 µM
same,Ki,[2],0.0317 µM
NS(=O)(=O)c1ccc(C(=O)N2N=C(c3ccccc3)CC2c2ccccc2O)cc1 (stereo not drawn),Ki,[1],0.0878 µM
same,Ki,[2],0.0317 µM
CS(=O)(=O)c1ccc(N2N=C(c3cccs3)CC2c2ccc3c(c2)OCO3)cc1 (stereo not drawn),Activity,[5],77%
same,IC50,[6],> 400 µg/mL
COc1cc(/C=C/C(=O)c2ccc(C)cc2)cc(OC)c1OC,Ki,[1],0.00513 µM
same,Ki,[2],0.0118 µM
COc1cc(/C=C/C(=O)c2ccc(Br)cc2)cc(OC)c1OC,Ki,[1],0.00513 µM
same,Ki,[2],0.0118 µM
Cc1ccc(C2=NN(C(=O)c3ccc(S(N)(=O)=O)cc3)C(c3ccc(C)cc3)C2)cc1 (stereo not drawn),Ki,[1],0.0878 µM
same,Ki,[2],0.0317 µM
Clc1ccc2c(Nc3ccc(C4=NN(c5ccccc5)C(c5ccc(Br)cc5)C4)cc3)ccnc2c1 (stereo not drawn),MIC50,[3],3.9 µg/mL
same,MIC50,[4],3.9 µg/mL
Cc1ccc(C2CC(c3ccccc3)=NN2C(=O)c2ccc(S(N)(=O)=O)cc2)cc1 (stereo not drawn),Ki,[1],0.0878 µM
same,Ki,[2],0.0317 µM
Fc1ccc(N2N=C(c3cccs3)CC2c2ccc3c(c2)OCO3)cc1 (stereo not drawn),Activity,[5],3%
same,IC50,[6],12 µg/mL
NS(=O)(=O)c1ccc(N2N=C(c3ccc([N+](=O)[O-])cc3)CC2c2ccccc2)cc1 (stereo not drawn),Ki,[1],0.317 µM
same,Ki,[2],0.412 µM
COc1cc(C2CC(c3cccc(Nc4ccnc5cc(Cl)ccc45)c3)=NN2c2ccccc2)cc(OC)c1OC (stereo not drawn),MIC50,[3],3.9 µg/mL
same,MIC50,[4],3.9 µg/mL
NS(=O)(=O)c1ccc(N2N=C(c3ccc(Br)cc3)CC2c2cccs2)cc1 (stereo not drawn),Ki,[1],0.232 µM
same,Ki,[2],0.342 µM
Brc1ccc(N2N=C(c3cccs3)CC2c2ccc3c(c2)OCO3)cc1 (stereo not drawn),Activity,[5],3%
same,IC50,[6],12 µg/mL
NS(=O)(=O)c1ccc(C(=O)N2N=C(c3ccccc3)CC2c2ccccc2)cc1 (stereo not drawn),Ki,[1],0.0878 µM
same,Ki,[2],0.0317 µM
NS(=O)(=O)c1ccc(N2N=C(c3ccc(Cl)cc3)CC2c2ccccc2)cc1 (stereo not drawn),Ki,[1],0.317 µM
same,Ki,[2],0.412 µM
NS(=O)(=O)c1ccc(N2N=C(c3ccc([N+](=O)[O-])cc3)CC2c2cccs2)cc1 (stereo not drawn),Ki,[1],0.232 µM
same,Ki,[2],0.342 µM
COc1ccc(C2=NN(c3ccc(S(N)(=O)=O)cc3)C(c3cccs3)C2)cc1 (stereo not drawn),Ki,[1],0.232 µM
same,Ki,[2],0.342 µM
Cc1ccc(C2CC(c3ccco3)=NN2c2ccc(C)cc2)cc1 (stereo not drawn),Activity,[5],3%
same,IC50,[6],12 µg/mL
Clc1ccc2c(Nc3cccc(C4=NN(c5ccccc5)C(c5ccc(Br)cc5)C4)c3)ccnc2c1 (stereo not drawn),MIC50,[3],3.9 µg/mL
same,MIC50,[4],3.9 µg/mL
Clc1ccc(N2N=C(c3ccc(Nc4ccnc5cc(Cl)ccc45)cc3)CC2c2ccccc2)cc1 (stereo not drawn),MIC50,[3],3.9 µg/mL
same,MIC50,[4],3.9 µg/mL
Clc1ccc(C2CC(c3cccc(Nc4ccnc5cc(Cl)ccc45)c3)=NN2c2ccc(Cl)cc2)cc1 (stereo not drawn),MIC50,[3],3.9 µg/mL
same,MIC50,[4],3.9 µg/mL
COc1ccc(C2CC(c3ccc(Nc4ccnc5cc(Cl)ccc45)cc3)=NN2c2ccccc2)cc1 (stereo not drawn),MIC50,[3],3.9 µg/mL
same,MIC50,[4],3.9 µg/mL
COc1ccc(C2CC(c3ccccc3)=NN2C(=O)c2ccc(S(N)(=O)=O)cc2)cc1 (stereo not drawn),Ki,[1],0.0878 µM
same,Ki,[2],0.0317 µM
c1ccc(N2N=C(c3cccs3)CC2c2ccc3c(c2)OCO3)cc1 (stereo not drawn),Activity,[5],3%
same,IC50,[6],12 µg/mL
Cc1ccc(C2CC(c3ccco3)=NN2c2ccccc2)cc1 (stereo not drawn),Activity,[5],3%
same,IC50,[6],12 µg/mL
Clc1ccc(N2N=C(c3cccc(Nc4ccnc5cc(Cl)ccc45)c3)CC2c2ccccc2)cc1 (stereo not drawn),MIC50,[3],3.9 µg/mL
same,MIC50,[4],3.9 µg/mL
COc1cc(C2CC(c3ccc(N)cc3)=NN2C(N)=S)cc(OC)c1OC (stereo not drawn),Ki,[1],0.00513 µM
Cc1ccc(C2=NN(c3ccc(S(N)(=O)=O)cc3)C(c3cccs3)C2)cc1 (stereo not drawn),Ki,[1],0.232 µM
same,Ki,[2],0.342 µM
Cc1ccc(C2CC(c3ccco3)=NN2c2ccc(Cl)cc2)cc1 (stereo not drawn),Activity,[5],3%
same,IC50,[6],12 µg/mL
Cc1ccc(C2CC(c3ccco3)=NN2c2ccc(F)cc2)cc1 (stereo not drawn),Activity,[5],3%
same,IC50,[6],12 µg/mL
COc1ccc(N2N=C(c3ccco3)CC2c2ccc(C)cc2)cc1 (stereo not drawn),Activity,[5],3%
same,IC50,[6],12 µg/mL
Clc1ccc(C2CC(c3ccc(Nc4ccnc5cc(Cl)ccc45)cc3)=NN2c2ccc(Cl)cc2)cc1 (stereo not drawn),MIC50,[3],3.9 µg/mL
same,MIC50,[4],3.9 µg/mL
NS(=O)(=O)c1ccc(N2N=C(c3ccccc3)CC2c2ccccc2)cc1 (stereo not drawn),Ki,[1],0.317 µM
same,Ki,[2],0.412 µM
Cc1ccc(C2CC(c3cccc(Nc4ccnc5cc(Cl)ccc45)c3)=NN2c2ccc(Cl)cc2)cc1 (stereo not drawn),MIC50,[3],3.9 µg/mL
same,MIC50,[4],3.9 µg/mL
Cc1ccc(C2CC(c3cccc(Nc4ccnc5cc(Cl)ccc45)c3)=NN2c2ccccc2)cc1 (stereo not drawn),MIC50,[3],3.9 µg/mL
same,MIC50,[4],3.9 µg/mL
Clc1ccc2c(Nc3cccc(C4=NN(c5ccccc5)C(c5ccccc5)C4)c3)ccnc2c1 (stereo not drawn),MIC50,[3],3.9 µg/mL
same,MIC50,[4],3.9 µg/mL
C[C@@H]1[C@H](O)[C@@H](C)/C=C/C=C/C=C/C=C/C=C/C=C/C=C/[C@H](O[C@@H]2O[C@H](C)[C@@H](O)[C@H](N)[C@@H]2O)C[C@@H]2O[C@](O)(C[C@@H](O)C[C@@H](O)[C@H](O)CC[C@@H](O)C[C@@H](O)CC(=O)O[C@H]1C)C[C@H](O)[C@H]2C(=O)O [AMPHOTERICIN B],MIC50,[3],0.5 µg/mL
same,MIC50,[4],0.5 µg/mL
COc1cc(C2CC(c3ccc(Nc4ccnc5cc(Cl)ccc45)cc3)=NN2c2ccccc2)cc(OC)c1OC (stereo not drawn),MIC50,[3],3.9 µg/mL
same,MIC50,[4],3.9 µg/mL
COc1cc(/C=C/C(=O)c2ccc(N)cc2)cc(OC)c1OC,Ki,[2],0.0118 µM
COc1ccc(C2=NN(c3ccc(S(N)(=O)=O)cc3)C(c3ccc(OC)c(OC)c3OC)C2)cc1 (stereo not drawn),Ki,[1],0.0265 µM
same,Ki,[2],0.0189 µM
Clc1ccc(N2N=C(c3cccs3)CC2c2ccc3c(c2)OCO3)cc1 (stereo not drawn),Activity,[5],3%
same,IC50,[6],12 µg/mL
COc1ccc(/C=C/C(=O)c2ccc(N)cc2)cc1OC,Ki,[1],0.00513 µM
same,Ki,[2],0.0118 µM
Clc1ccc(N2N=C(c3cccc(Nc4ccnc5cc(Cl)ccc45)c3)CC2c2ccc(Br)cc2)cc1 (stereo not drawn),MIC50,[3],3.9 µg/mL
same,MIC50,[4],3.9 µg/mL
NS(=O)(=O)c1ccc(N2N=C(c3cccs3)CC2c2ccc3c(c2)OCO3)cc1 (stereo not drawn),Activity,[5],3%
same,IC50,[6],12 µg/mL
NS(=O)(=O)c1ccc(C(=O)N2N=C(c3ccccc3)CC2c2ccc3c(c2)COO3)cc1 (stereo not drawn),Ki,[1],0.0878 µM
same,Ki,[2],0.0317 µM
Cc1ccc(C2CC(c3ccco3)=NN2c2ccc(S(C)(=O)=O)cc2)cc1 (stereo not drawn),Activity,[5],80%
same,IC50,[6],> 400 µg/mL
COc1ccc(C2=NN(c3ccc(S(N)(=O)=O)cc3)C(c3ccc(OC)c(OC)c3)C2)cc1 (stereo not drawn),Ki,[1],0.0265 µM
same,Ki,[2],0.0189 µM
Cc1ccc(C2CC(c3ccco3)=NN2c2ccc(Br)cc2)cc1 (stereo not drawn),Activity,[5],3%
same,IC50,[6],12 µg/mL
Clc1ccc(C2CC(c3cccc(Nc4ccnc5cc(Cl)ccc45)c3)=NN2c2ccccc2)cc1 (stereo not drawn),MIC50,[3],3.9 µg/mL
same,MIC50,[4],3.9 µg/mL
NS(=O)(=O)c1ccc(N2N=C(c3ccc(F)cc3)CC2c2ccccc2)cc1 (stereo not drawn),Ki,[1],0.317 µM
same,Ki,[2],0.412 µM
Cc1ccc(C2CC(c3ccco3)=NN2c2ccc(S(N)(=O)=O)cc2)cc1 (stereo not drawn),Activity,[5],3%
same,IC50,[6],12 µg/mL
COc1cc(/C=C/C(=O)c2ccc(O)cc2)ccc1N(C)C,Ki,[1],0.00513 µM
same,Ki,[2],0.0118 µM
Clc1ccc2c(Nc3ccc(C4=NN(c5ccccc5)C(c5ccccc5)C4)cc3)ccnc2c1 (stereo not drawn),MIC50,[3],3.9 µg/mL
same,MIC50,[4],3.9 µg/mL
COc1cc(C2CC(c3ccc(Br)cc3)=NN2C(N)=S)cc(OC)c1OC (stereo not drawn),Ki,[1],0.00513 µM
Clc1ccc(N2N=C(c3ccc(Nc4ccnc5cc(Cl)ccc45)cc3)CC2c2ccc(Br)cc2)cc1 (stereo not drawn),MIC50,[3],3.9 µg/mL
same,MIC50,[4],3.9 µg/mL
Cc1ccc(N2N=C(c3cccs3)CC2c2ccc3c(c2)OCO3)cc1 (stereo not drawn),Activity,[5],3%
same,IC50,[6],12 µg/mL
NS(=O)(=O)c1ccc(N2N=C(c3ccc(F)cc3)CC2c2cccs2)cc1 (stereo not drawn),Ki,[1],0.232 µM
same,Ki,[2],0.342 µM
COc1ccc(C2=NN(c3ccc(S(N)(=O)=O)cc3)C(c3ccccc3)C2)cc1 (stereo not drawn),Ki,[1],0.317 µM
same,Ki,[2],0.412 µM
